Patent US8088806B2 (Achillion Pharmaceuticals, Inc., priority 2005, dated 2012)

System: HCV replicon
Test: Replicon based assay of HCV replication inhibition (NPT ELISA)
Assay type: cell-based, Hepatitis C virus
Conditions: Hepatitis C virus, replicon based assay of HCV replication inhibition; Table II; read-out: Activity
How it was run: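 NPT (neomycin phosphotransferase) content, proportional to replicon replication, quantified by capture ELISA on day four. Before that, replicon-bearing Huh-7 cells in G418-free screening medium were exposed three days at 37° C to compound, typically six doses from 10 to 0.03 micromolar, with equal DMSO across wells.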

Compound	EC50 [µM]
CCCCCCCOc1ccc(Nc2nc(-c3ccccc3)c(-c3ccccc3)s2)cc1 [compound 352, N-(4-(heptyloxy)phenyl)-4,5-diphenylthiazol-2-amine]	> 10
CCCCCCCCOc1ccc(Nc2nc(-c3ccc(OC)cc3)c(-c3ccc(OC)cc3)s2)cc1 [compound 353, 4,5-bis(4-methoxyphenyl)-N-(4-(octyloxy)phenyl)thiazol-2-amine]	1 to 10
CCCCCCCOc1ccc(Nc2nc(-c3ccc(OC)cc3)c(-c3ccc(OC)cc3)s2)cc1 [compound 355, N-(4-(heptyloxy)phenyl)-4,5-bis(4-methoxyphenyl)thiazol-2-amine]	> 10
COc1ccc(-c2nc(Nc3ccc(F)cc3)sc2-c2ccc(OC)cc2)cc1 [compound 356, N-(4-fluorophenyl)-4,5-bis(4-methoxyphenyl)thiazol-2-amine]	1 to 10
COc1ccc(-c2nc(Nc3cc(OC)ccc3OC)sc2-c2ccc(OC)cc2)cc1 [compound 357, N-(2,5-dimthoxyphenyl)-4,5-bis(4-methoxyphenyl)thiazol-2-amine]	> 10
CCCCCOc1ccc(Nc2nc(-c3cccs3)cs2)cc1C(F)(F)F [compound 358, N-(4-(pentyloxy)-3-(trifluoromethyl)phenyl)-4-(thiophen-2-yl)thiazol-2-amine]	< 1
CCCCCCCOc1ccc(Nc2nc(-c3cccs3)cs2)cc1 [compound 359, N-(4-(heptyloxy)phenyl)-4-(thiophen-2-yl)thiazol-2-amine]	< 1
CCCCCCCCOc1ccc(Nc2nc(-c3cccs3)cs2)cc1 [compound 360, N-(4-(octyloxy)phenyl)-4-(thiophen-2-yl)thiazol-2-amine]	< 1
CCCCCOc1ccc(Nc2nc(-c3cc4cnccc4o3)cs2)cc1C(F)(F)F [compound 361, 4-(furo[3,2-c]pyridin-2-yl)-N-(4-(pentyloxy)-3-(trifluoromethyl)phenyl)thia-zol-2-amine]	< 1
CCCCCCCOc1ccc(Nc2nc(-c3cc4cnccc4o3)cs2)cc1 [compound 362, 4-(furo[3,2-c]pyridin-2-yl)-N-(4-(heptyloxy)phenyl)thiazol-2-amine]	1 to 10
c1ccc(Oc2cccc(Nc3nc(-c4cc5cnccc5o4)cs3)c2)cc1 [compound 363, 4-(furo[3,2-c]pyridin-2-yl)-N-(3-phenoxyphenyl)thiazol-2-amine]	> 10
CCCCCOc1ccc(Nc2nc(-c3ccncc3)cs2)cc1C(F)(F)F [compound 364, N-(4-(pentyloxy)-3-(trifluoromethyl)phenyl)-4-(pyridin-4-yl)thiazol-2-amine]	< 1
CCCCCCCOc1ccc(Nc2nc(-c3ccncc3)cs2)cc1 [compound 365, N-(4-(heptyloxy)phenyl)-4-(pyridin-4-yl)thiazol-2-amine]	< 1
c1ccc(Oc2cccc(Nc3nc(-c4ccncc4)cs3)c2)cc1 [compound 366, N-(3-phenoxyphenyl)-4-(pyridin-4-yl)thiazol-2-amine]	< 1
CCCCCOc1ccc(Nc2nc(C3(C(=O)OCC)CC3)cs2)cc1C(F)(F)F [compound 367, ethyl 1-(2-(4-(pentyloxy)-3-(trifluoromethyl)pheenyl-amino)thiazol-4-yl)cyclopropanecarboxylate]	> 10
CCCCCOc1ccc(Nc2nc(N3CCCC3C(=O)O)cs2)cc1C(F)(F)F (stereo not drawn) [compound 368, 1-(2-(4-(pentyloxy)-3-(trifluoromethyl)phenyl-amino)thiazol-4-yl)pyrrolidine-2-carboxylic acid]	1 to 10
CCCCCCCOc1ccc(Nc2nc(-c3ccc(C)nc3)cs2)cc1 [compound 369, N-(4-(heptyloxy)phenyl)-4-(6-methylpyridin-3-yl)thiazol-2-amine]	< 1
CCCCCCCCOc1ccc(Nc2nc(-c3ccc(C)nc3)cs2)cc1 [compound 370, 4-(6-methylpyridin-3-yl)-N-(4-(octyloxy)phenyl)thiazol-2-amine]	< 1
CCCCCOc1ccc(Nc2nc(-c3ccccc3O)cs2)cc1C(F)(F)F [compound 371, 2-(2-(4-(pentyloxy)-3-(trifluoromeethyl)phenyl-amino)thiazol-4-yl)phenol]	1 to 10
CCCCCCCOc1ccc(Nc2nc(-c3ccccc3O)cs2)cc1 [compound 372, 2-(2-(4-(heptyloxy)phenylamino)thia-zol-4-yl)phenol]	< 1
CCCCCCCCOc1ccc(Nc2nc(-c3ccccc3O)cs2)cc1 [compound 373, 2-(2-(4-(octyloxy)phenylamino)thia-zol-4-yl)phenol]	< 1
CCCCCOc1ccc(Nc2nc(-c3ccccc3OC)cs2)cc1C(F)(F)F [compound 374, 4-(2-methoxyphenyl)-N-(4-(pentyloxy)-3-(trifluoromethyl)phenyl)thia-zol-2-amine]	1 to 10
CCCCCCCOc1ccc(Nc2nc(-c3ccccc3OC)cs2)cc1 [compound 375, N-(4-(heptyloxy)phenyl)-4-(2-methoxyphenyl)thiazol-2-amine]	< 1
CCCCCCCCOc1ccc(Nc2nc(-c3ccccc3OC)cs2)cc1 [compound 376, 4-(2-methoxyphenyl)-N-(4-(octyloxy)phenyl)thiazol-2-amine]	< 1

Compound	EC50 [µM]
CCCCCOc1ccc(Nc2nc(-c3ccc(O)nc3)cs2)cc1C(F)(F)F [compound 377, 5-(2-(4-(pentyloxy)-3-(trifluoromethyl)phenyl-amino)thiazol-4-yl)pyridin-2-ol]	< 1
CCCCCOc1ccc(Nc2nc(-c3ccc(OC)nc3)cs2)cc1C(F)(F)F [compound 378, 4-(6-methoxypyridin-3-yl)-N-(4-(pentyloxy)-3-(trifluoromethyl)phenyl)thia-zol-2-amine]	< 1
CCCCCN(C)c1ccc(Nc2nc(-c3cccnc3)cs2)cc1C(F)(F)F [compound 379, N^1-methyl-N^1-pentyl-N^4-(4-(pyridin-3-yl)thiazol-2-yl)-2-(trifluoromethyl)benzene-1,4-diamine]	< 1
CCCCCCCCOc1ccc(Nc2nc(-c3ccc(Br)cc3)cs2)cc1 [compound 382, 4-(4-bromophenyl)-N-(4-(octyloxy)phenyl)thiazol-2-amine]	< 1
CCCCCCCCOc1ccc(Nc2nc(-c3ccc4[nH]c(=O)oc4c3)cs2)cc1 [compound 383, 6-(2-(4-(octyloxy)phenylamino)thia-zol-4-yl)benzo[d]oxazol-2(3H)-one]	< 1
CCCCCCCCOc1ccc(Nc2nc(-c3cccc(C(=O)O)c3)cs2)cc1 [compound 384, 3-(2-(4-(octyloxy)phenylamino)thia-zol-4-yl)benzoic acid]	< 1
CCCCCCCCOc1ccc(Nc2nc(-c3ccccn3)cs2)cc1 [compound 385, N-(4-(octyloxy)phenyl)-4-(pyridin-2-yl)thiazol-2-amine]	< 1
CCCCCCCCOc1ccc(Nc2nc(-c3c[nH]c4ccccc34)cs2)cc1 [compound 386, 4-(1H-indol-3-yl)-N-(4-(octyloxy)pheenyl)thiazol-2-amine]	< 1
CCCCCCCCOc1ccc(Nc2nc(-c3ccc(-c4ccccn4)s3)cs2)cc1 [compound 387, N-(4-(octyloxy)phenyl)-4-(5-(pyridin-2-yl)thiophen-2-yl)thiazol-2-amine]	< 1
CCCCCCCCOc1ccc(Nc2nc(-c3nc4ccccc4s3)cs2)cc1 [compound 388, 4-(benzo[d]thiazol-2-yl)-N-(4-(octyloxy)phenyl)thiazol-2-amine]	< 1
CCCCCCCCOc1ccc(Nc2nc(-c3cc4ccccc4o3)cs2)cc1 [compound 389]	< 1
CCCCCCCCOc1ccc(Nc2nc(-c3sc(-c4cnccn4)nc3C)cs2)cc1 [compound 390, 4-(4-methyl-2-(pyrazin-2-yl)thiazol-5-yl)-N-(4-(octyloxy)phenyl)thiazol-2-amine]	< 1
CCCCCCCCOc1ccc(Nc2nc(CC)cs2)cc1 [compound 391, 4-ethyl-N-(4-(octyloxy)phenyl)thiazol-2-amine]	< 1
CCCCCCCOc1ccc(Nc2nc(-c3ccc(O)c(O)c3)cs2)cc1 [compound 392, 4-(2-(4-(heptyloxy)phenylamino)thia-zol-4-yl)benzene-1,2-diol]	< 1
CCCCCCCOc1ccc(Nc2nc(-c3ccc(Cl)s3)cs2)cc1 [compound 393, 4-(5-chlorothiophen-2-yl)-N-(4-(heptyloxy)phenyl)thiazol-2-amine]	< 1
CCCCCCCOc1ccc(Nc2nc(-c3ccc(Br)cc3)cs2)cc1 [compound 394, 4-(4-bromophenyl)-N-(4-(heptyloxy)phenyl)thiazol-2-amine]	< 1
CCCCCCCOc1ccc(Nc2nc(-c3ccc4[nH]c(=O)oc4c3)cs2)cc1 [compound 395, 6-(2-(4-(heptyloxy)phenylamino)thia-zol-4-yl)benzo[d]exazol-2(3H)-one]	< 1
CCCCCCCOc1ccc(Nc2nc(-c3cccc(C(=O)O)c3)cs2)cc1 [compound 396, 3-(2-(4-(heptyloxy)phenylamino)thia-zol-4-yl)benzoic acid]	< 1
CCCCCCCOc1ccc(Nc2nc(-c3ccccn3)cs2)cc1 [compound 397, N-(4-(heptyloxy)phenyl)-4-(pyridin-2-yl)thiazol-2-amine]	< 1
CCCCCCCOc1ccc(Nc2nc(-c3c[nH]c4ccccc34)cs2)cc1 [compound 398, N-(4-(heptyloxy)phenyl)-4-(1H-indol-3-yl)thiazol-2-amine]	< 1
CCCCCCCOc1ccc(Nc2nc(-c3ccc(-c4ccccn4)s3)cs2)cc1 [compound 399, N-(4-(heptyloxy)phenyl)-4-(5-(pyridin-2-yl)thiophen-2-yl)thiazol-2-amine]	< 1
CCCCCCCOc1ccc(Nc2nc(-c3nc4ccccc4s3)cs2)cc1 [compound 400, 4-(benzo[d]thiazol-2-yl)-N-(4-(heptyloxy)phenyl)thiazol-2-amine]	1 to 10
CCCCCCCOc1ccc(Nc2nc(-c3cc4ccccc4o3)cs2)cc1 [compound 401, 4-(benzofuran-2-yl)-N-(4-(heptyloxy)phenyl)thiazol-2-amine]	1 to 10
CCCCCCCOc1ccc(Nc2nc(-c3sc(-c4cnccn4)nc3C)cs2)cc1 [compound 402]	< 1
